The source of these data is US20120065267A1, “COMPOSITIONS INCLUDING 3,5-L-T2 AND METHODS OF USE THEREOF” (priority 2010, published 2012).

“And” between values parts separate entries of the source, which are not always exact repeats. Identical values can stand only once.

Test [1] deals with growth hormone gene expression. The conditions noted are these: cited from earlier work.
For test [2], the system named is thyroid receptor homodimer. The conditions noted are these: in contrast to T3; cited from earlier work.
Test [3] concerns C57, LDLr+/− and LDLr0 mice. The experiment in a line: Blood sugar (serum glucose) in mice on Western Diet given daily oral T2. Format: in vivo. Also on record: Blood Sugar / Blood Sugar Ave: unit not given here. The conditions noted are these: for Blood Sugar Ave / Blood Sugar: Western Diet. On the procedure:
This corresponds to a dosage for an 80 kg human of about 20-200 mg/day, or a low dose of about 0.2-0.3 mg/kg of body weight to a high dose of about 2-3 mg/kg of body weight. One will appreciate, however, that some subjects (e.g., subjects having very low LDL receptor function) may receive higher doses, depending on need. likewise, some subjects may receive lower doses, which again depends on need. Mice in the study were fed a standard lab chow referred to as the “Western Diet.” The overall level of fat and the saturated nature of the fat are representative diets typical in the industrialized west that are linked to risk of cardiovascular disease in humans. The formula is used primarily with genetically manipulated rodent models that are susceptible to high cholesterol and cardiovascular disease. The diet may also be useful in diet-induced obesity, diabetes, and metabolic syndrome models. High cholesterol, obesity, and diabetes are each associated increased risk for cardiovascular disease. The composition of the Western Diet is shown below. C57 is a wild-type strain, LDLr+/− are a strain carrying one functional copy of the LDLr gene, and the LDLr0 animals are total LDLr knockouts. The LDLr gene encodes for the LDL receptor protein, which is responsible for scavenging LDL with bound cholesterol from the blood and transporting it into cells. Both heterozygous and homozygous LDLr knockout animals develop very high serum cholesterol levels and are considered to be a good model for heterozygous and homozygous familial hypercholesterolemia in humans. […] LDLr knockout animals have zero LDL receptor function.

Regarding `N[C@@H](Cc1cc(I)c(Oc2ccc(O)cc2)c(I)c1)C(=O)O` [T2, (2S)-2-amino-3-[4-(4-hydroxyphenoxy)-3,5-diiodophenyl]propanoic acid], the “potency relative to T3 in increasing growth hormone gene expression” value in test [1] is listed as 1/100. Also, in test [2], the “effect on thyroid receptor homodimer formation” value was “no effect”. The “Blood Sugar Ave” value in test [3] (C57 mice, 1 Week High Dose T2, group average) amounted to 110.0; in test [3] (C57 mice, 1 Week Low Dose T2, group average), 170.0; in test [3] (LDLr0 mice, 1 Week High Dose T2, group average) it was 94.0; in test [3] (LDLr0 mice, 1 Week Low Dose T2, group average) it was 92.0; in test [3] (LDLr+/− mice, 1 Week High Dose T2, group average) it was 101.0; in test [3] (LDLr+/− mice, 1 Week Low Dose T2, group average), 201.0. For the same molecule, the “Blood Sugar” value was 74 and 158 and 106 and 120 and 92 in test [3] (C57 mice, 1 Week High Dose T2, individual animals); 151 and 203 and 186 and 190 and 120 in test [3] (C57 mice, 1 Week Low Dose T2, individual animals); 87 and 101 in test [3] (LDLr0 mice, 1 Week High Dose T2, individual animals); 143 and 54 and 79 in test [3] (LDLr0 mice, 1 Week Low Dose T2, individual animals); 108 and 99 and 112 and 94 and 113 and 80 in test [3] (LDLr+/− mice, 1 Week High Dose T2, individual animals); 202 and 146 and 235 and 171 and 242 and 210 in test [3] (LDLr+/− mice, 1 Week Low Dose T2, individual animals). Moreover, the “lowered blood sugar levels, average” value in test [3] (all genetic groups (C57, LDLr+/−, LDLr0), high dose T2 2.5 mg/kg daily oral, vs controls) is 45-50%.
